The values below come from patent US8951563B2, “Antibiotic drug delivery and potentiation” (Technion Research & Development Foundation Limited, priority 2009, dated 2015).

In data set [1] the test system is E. coli AG100. As to the kind of experiment: Ethidium bromide (EtBr) uptake assay. Particulars: bacteria in PBS, FIG. 2A. The data set is classed as cell-based. As to the method:
Cells were grown overnight in LB broth at 37° C. to an optical density of 1 (620 nm), washed twice in 200 μl PBS, and resuspended in the same buffer containing 0.5% glucose. […] Fluorescence was recorded by a BioTeK synergy HT Microplate Reader (excitation, 530 nm; emission, 645 nm).
Ethidium bromide is known for its ability to spontaneously translocate across bacterial membranes and interact with nucleic acids, as can be evidenced by the increase in fluorescence signal.

The subject of a further data set is A. aureus. It is filed as cell-based. The protocol: (§1) All bacteria were cultured in Luria-Bertani (LB) medium (10 g/l tryptone, 5 g/l yeast extract, 5 g/l NaCl, pH 7.4).
(§2) Bacteria were grown overnight in LB growth medium and diluted 10,000-fold in same medium.
(§3) Inhibition of proliferation was determined by optical density measurements (620 nm) after incubation overnight at 37° C.

The subject of a further data set is E. coli. The data set is classed as cell-based. The protocol:
as §1, §2, §3

Data set [2] in a line: Freeze fracture electron microscopy of cochleates.
Data set [3] is described as follows: Encapsulation efficiency, liposome versus cochleate (MIC and fluorescamine methods). It is filed as physicochemical.
Data set [4] relates to four MDR clinical isolates of E. coli. It is filed as cell-based. The protocol: as §2, §3
The nature of data set [5]: Maximal tolerated dose (MTD), single IV injection. Particulars: mice, free OAK.
Data set [6] can be described thus: Molecular charge and RP-HPLC hydrophobicity of polymers. The data set is classed as physicochemical. Particulars: HPLC-RP gradient mobile phase. From the text:
Briefly, the polymers were synthesized while applying the Fmoc active ester chemistry on a fully automated, programmable peptide synthesizer (Applied Biosystems 433A). After cleavage from the resin, the crude product was extracted with 30% acetonitrile in water and purified by RP-HPLC (Alliance Waters), so as to obtain a chromatographic homogeneity higher than 95%. HPLC runs were typically performed on C18 columns (Vydac, 250 mm×4.6 or 10 mm) using a linear gradient of acetonitrile in water (1% per minute), both solvents containing 0.1% trifluoroacetic acid. The purified polymers were subjected to mass spectrometry (ZQ Waters) and NMR analyses to confirm their composition, and stored as a lyophilized powder at −20° C. Prior to being tested, fresh solutions were prepared in water, vortexed, sonicated, centrifuged and then diluted in the appropriate medium.
“Q” represents the overall molecular charge at physiological pH; “ACN (%)” represents the percent of acetonitrile in the HPLC-RP gradient mobile phase at which the polymer was eluted and which corresponds to the estimated hydrophobicity of the polymer. The column headed by “Ref.” indicates prior reference of the OAK if present, wherein a number in parentheses “(##)” corresponds to the SEQ ID NO in U.S. Pat. No. 7,504,381; the letter “R” indicates a polymer published in Radzishevsky I. S. et al. (2008), Chem. Biol., 15(4), pp. 354-362; and “New” indicates a novel polymer disclosed herein.

Data set [7] has as its system E. coli AG100. As to the kind of experiment: Bactericidal kinetics (time-kill). To be noted: sub-MIC concentrations, FIG. 2B. It is filed as cell-based. The protocol:
Bacteria were sampled at various time intervals, subjected to serial 10-fold dilutions, and plated onto LB-agar. Cell counts were determined using the drop plate method. Plates were incubated overnight at 37° C. and colonies were counted.

Data set [8] in a line: Cochleate formation by light microscopy. Also on record: key: or above (E!); excellent (E); good (G); poor (P); none (N). The data set is classed as physicochemical. The protocol: Lipid films containing binary mixtures of lipids were made from aliquots of stock solutions in chloroform:methanol (2:1). The solvent was evaporated with a stream of nitrogen gas and the lipids deposited as a film on the walls of a glass tube. The tubes were then placed in a vacuum dessicator for 3 hours. The films were kept under Argon at −20° C. The lipid films were hydrated with buffer solutions of OAK polymers with extensive vortexing, so as to have a lipid to polymer molar ratio of […].
Hydrated films were subjected to freeze thawing three times before imaging, to ensure proper equilibration of OAK with the multilamellar vesicles. A drop of this mixture was placed on a glass slide and covered with a glass coverslip. Light microscopy was carried out at room temperature using a Zeiss Axiovert 100M microscope with a Plan-Neofluar 100×/1.3 oil immersion objective. Images were analyzed with the Zeiss LSM image browser v2.8.
The morphology of the samples of different OAKs and different lipid mixtures could be classified into the following categories.
Table 5 presents the results of cochleate formation with different lipid mixtures of 1:10 lipid to polymer ratio, and a series of OAK polymers, indicated by their alternative denotations and SED ID Nos in parentheses. “Tm” denotes the melting temperature of the lipid bilayer afforded by the given lipid mixture. Some selected samples were further analyzed to confirm the results with freeze fracture electron microscopy for, as indicated in Table 5. Cochleate formation is defined as excellent (E) or above (E!), good (G), poor (P), or none (N) based on the aforementioned comparison, as well as on the abundance of cochleate structures observed in the light microscopy images. Lipid mixtures having a number in parenthesis are samples for which freeze-fracture electron microscopy analysis was conducted. Lipid mixtures having a “+” sign next to the number in parenthesis are samples which were confirmed by freeze-fracture electron microscopy as forming large cochleates with few vesicles and no inverted micellar (HII) morphology (samples 2, 3 and 5), or smaller cochleate structures mixed with other morphologies (samples 0 and 4). Lipid mixtures which contain only anionic lipids are marked with “^A”. Sample 0 is the lipid/OAK system used and presented in Example 1 hereinabove.

The test system of data set [9] is Klebsiella pneumoniae CI 1286. The data set can be described thus: Whole blood assay (stability and drug release). The data set is classed as cell-based. To be noted: whole human blood, 37° C., 4 and 40 multiples of the MIC, FIG. 4D. The protocol: Stability and drug release rates were assessed using the human blood-resistant Klebsiella pneumoniae CI 1286. […] After the specified incubation periods (37° C.), aliquots were plated on LB agar as described above (Antibacterial assays) for CFU count.
The stability of OAK-cochleate and OAK-liposome preparations in whole blood was compared by assessing antibacterial activity against the blood-resistant strain of Klebsiella pneumonia.

In brackets after ≈: the same amount, converted by molar mass.

A word on the mortality: it is the share of the test organisms that died.

For the compound `CCCCCCCCCCCC(=O)NC(CCCCN)C(=O)NCCCCCCCC(=O)NC(CCCCN)C(=O)NCCCCCCCC(=O)NC(CCCCN)C(=O)NCCCCCCCC(=O)NC(CCCCN)C(=O)NCCCCCCCC(=O)NC(CCCCN)C(=O)NCCCCCCCC(=O)NC(CCCCN)C(=O)NCCCCCCCC(=O)NC(CCCCN)C(=O)NCCCCCCCC(=O)NC(CCCCN)C(N)=O` (stereo not drawn) [C12K-7α8, C12K(NC8K)7NH2], the “EtBr uptake (intracellular accumulation)” value in the data set on E. coli AG100 [1] is listed as “enhanced in a dose-dependent manner”. Moreover, the “MIC A. aureus” value against A. aureus worked out at 50 µM (≈ 111 µg/mL). Further, the “MIC E. coli” value in the data set on E. coli was determined as 3.1 µM (≈ 6.86 µg/mL). In addition, the “cochleate formation by freeze fracture electron microscopy” value in data set [2] (DMPE:TOCL (75:25), DPPE:TOCL (75:25) or DMPE:DOPG (75:25)) is “strongly promoted the formation of large cochleates”; in data set [2] (POPC:TOCL (75:25) or POPG:TOCL (75:25)), “weakly promoted cochleate formation”. The “Pre-formed and fully formed cochleate Length” value in data set [2] (POPC:TOCL 75:25, 10:1 lipid to polymer) is reported as “(1.8) μm”. Besides, in [3] (cochleates (POPE:TOCL)), the “OAK encapsulation efficiency in cochleates (OAK bound)” value was greater than 80%. Besides, the “OAK encapsulation efficiency in liposomes” value in data set [3] (liposomes (PC:PEG2000)) is recorded as less than 20%. For the same compound, the “OAK MIC” value in data set [4] stood at 6.9 µg/mL. Moreover, the mortality in data set [5] (10 mg/kg) was 33%. Moreover, in [5], the “maximal tolerated dose (MTD)” value is on record as roughly 5 mg OAK/kg. The “ACN (%) (percent acetonitrile at elution, estimated hydrophobicity)” value in data set [6] was 47.5%. Also, the “time-kill, OAK alone” value in the data set on E. coli AG100 [7] was “significant bactericidal activity at sub-MIC concentrations”. The Cochleate formation result in data set [8] (DMPC:TOCL 75:25, 1:10 lipid to polymer ratio) is given as “N”; in [8] (DMPE:DOPG 75:25, 1:10 lipid to polymer ratio), “E”; in data set [8] (DMPE:TOCL 75:25, 1:10 lipid to polymer ratio), “E”; in [8] (DMPG:TOCL 75:25 (anionic lipids only), 1:10 lipid to polymer ratio), “N”; in data set [8] (DOPE:TOCL 75:25, 1:10 lipid to polymer ratio), “P”; in [8] (DPPE:TOCL 75:25, 1:10 lipid to polymer ratio), “E”. The Cochleate formation result in [8] (POPC:TOCL 75:25, 1:10 lipid to polymer ratio) was “P”; in data set [8] (POPE:DOPG 75:25, 1:10 lipid to polymer ratio) it was “N”; in data set [8] (POPE:DOPG:TOCL 80:15:5, 1:10 lipid to polymer ratio), “N”; in data set [8] (POPE:TOCL 50:50, lipid to polymer 10:1) it was “poor cochleate former”; in [8] (POPE:TOCL 75:25, 1:10 lipid to polymer ratio), “G”; in [8] (POPG:TOCL 75:25 (anionic lipids only), 1:10 lipid to polymer ratio) it was “G”. The Cochleate formation result in [8] (TOCL alone, lipid to polymer 10:1) was “abundance of smaller liposomes”.
As for C12K(NC8K)7NH2 [C12K-7α8], the “antibacterial activity / OAK release in whole blood” value in [9] is recorded as “maintained rapid bactericidal activity”.
